From patent US20230140670A1, “FORMULATIONS” (Intellia Therapeutics, Inc., priority 2017, published 2023)

Tested on: TTR
Assay: Liver editing in mice by NGS (percent editing)
Assay type: in vivo, mouse
Conditions: CD-1 mice; 0.1 mg per kg; 7 days post dose; FIG. 7F-7G
Description: CD-1 female mice, ranging from 6 to 10 weeks of age were used in each study. Animals were weighed and grouped according to body weight for preparing dosing solutions based on group average weight. LNPs were dosed via the lateral tail vein in a volume of 0.2 mL per animal (approximately 10 mL per kilogram body weight). […] Body weight was measured at twenty-four hours post-administration, and animals were euthanized at various time points by exsanguination via cardiac puncture under isoflurane anesthesia. Blood was collected into serum separator tubes or into tubes containing buffered sodium citrate for plasma as described herein. […]
In brief, to quantitatively determine the efficiency of editing at the target location in the genome, genomic DNA was isolated and deep sequencing was utilized to identify the presence of insertions and deletions introduced by gene editing.
PCR primers were designed around the target site (e.g., TTR), and the genomic area of interest was amplified. […] The reads were aligned to the […] after eliminating those having low quality scores. The resulting files containing the reads were mapped to the reference genome (BAM files), where reads that overlapped the target region of interest were selected and the number of wild type reads versus the number of reads which contain an insertion, substitution, or deletion was calculated. […]

CCCCC/C=C\C/C=C\CCCCCCCC(=O)OCC(COC(=O)CCC(OCCCCCCCC)OCCCCCCCC)COC(=O)OCCCN(CC)CC (stereo not shown) [Lipid A, (9Z,12Z)-3-((4,4-bis(octyloxy)butanoyl)oxy)-2-((((3-(diethylamino)propoxy)carbonyl)oxy)methyl) propyl octadeca-9,12-dienoate]
potency (TTR knockdown and liver editing): highest potency
